Assay results from ChEMBL document CHEMBL4765380, “Synthesis, structure and anticancer activity of new geldanamycin amine analogs containing C(17)- or C(20)- flexible and rigid arms as well as closed or open ansa-bridges” (Eur J Med Chem, 2020).

Key:
[1] = Selectivity index, ratio of IC50 for cytotoxicity against human HDF cells to IC50 for cytotoxicity against human PC-3 cells; assay type: toxicity, cell-based; conditions: HDF cells versus PC-3 cells, read-out: Ratio IC50
[2] = Cytotoxicity against human HDF cells assessed as reduction in cell growth incubated for 72 hrs by SRB assay; assay type: cell-based; conditions: HDFa
[3] = Selectivity index, ratio of IC50 for cytotoxicity against human HDF cells to IC50 for cytotoxicity against human U-87 MG cells; assay type: toxicity, cell-based; conditions: HDF cells versus U-87 MG cells, read-out: Ratio IC50
[4] = Octanol/water partition coefficient, logP of compound incubated for 1 hr by UV-visible spectrophotometry; assay type: physicochemical
[5] = Selectivity index, ratio of IC50 for cytotoxicity against human HDF cells to IC50 for cytotoxicity against human A549 cells; assay type: toxicity, cell-based; conditions: HDF cells versus A549 cells, read-out: Ratio IC50
U-87 MG = test: Antiproliferative activity against human U-87 MG cells assessed as reduction in cell growth incubated for 72 hrs by SRB assay; assay type: functional, cell-based, U-87MG ATCC
[6] = Selectivity index, ratio of IC50 for cytotoxicity against human HDF cells to IC50 for cytotoxicity against human SK-OV-3 cells
A549 = test: Antiproliferative activity against human A549 cells assessed as reduction in cell growth incubated for 72 hrs by SRB assay; assay type: functional, cell-based; conditions: A549, 72 h
[7] = Binding affinity to HSP90 (unknown origin) assessed as dissociation constant by isothermal titration calorimetry; design: species or system Homo sapiens
SK-BR-3 = test: Antiproliferative activity against human SK-BR-3 cells assessed as reduction in cell growth incubated for 72 hrs by SRB assay; assay type: functional, cell-based; conditions: SK-BR-3, 72 h
SK-OV-3 = test: Antiproliferative activity against human SK-OV-3 cells assessed as reduction in cell growth incubated for 72 hrs by SRB assay; assay type: functional, cell-based; conditions: SK-OV-3, 72 h
PC-3 = test: Antiproliferative activity against human PC-3 cells assessed as reduction in cell growth incubated for 72 hrs by SRB assay; assay type: functional, cell-based; conditions: PC-3, 72 h
[8] = Selectivity index, ratio of IC50 for cytotoxicity against human HDF cells to IC50 for cytotoxicity against human SK-BR-3 cells; assay type: toxicity, cell-based; conditions: HDF cells versus SK-BR-3 cells, read-out: Ratio IC50
[9] = Binding affinity to HSP90 (unknown origin); design: species or system Homo sapiens
[10] = Binding affinity to yeast HSP90 assessed as dissociation constant by isothermal titration calorimetry; design: species or system Saccharomyces cerevisiae

| logP at 1 h [4] | IC50 (U-87 MG) | IC50 (A549) | Kd [7] | IC50 (SK-BR-3) | IC50 (SK-OV-3) | IC50 (PC-3) | Kd [9] | Kd [10] | Structure (SMILES) | selectivity ratio [1] | IC50 [2] | selectivity ratio [3] | selectivity ratio [5] | Ratio IC50 [6] | selectivity ratio [8] |
| --- | --- | --- | --- | --- | --- | --- | --- | --- | --- | --- | --- | --- | --- | --- | --- |
| 2.02 | 790 nM | 910 nM | 1370 nM | 930 nM | 740 nM | 810 nM | – | – | COCCOCCOCCNC1=C2C[C@@H](C)C[C@H](OC)[C@H](O)[C@@H](C)/C=C(\C)[C@H](OC(N)=O)[C@@H](OC)/C=C\C=C(/C)C(=O)NC(=CC1=O)C2=O | 3.42 | 2770 nM | 3.51 | 3.04 | 3.74 | 2.98 |
| – | 2040 nM | 2380 nM | 134000 nM | 2080 nM | 2660 nM | 2130 nM | – | – | CO[C@@H](C=CC=C(C)C(N)=O)[C@@H](OC(N)=O)/C(C)=C/[C@H](C)[C@@H](O)[C@H](C[C@H](C)CC1=C(NCCO)C(=O)C=C(NCCO)C1=O)OC | 2.72 | 4840 nM | 3.42 | 2.03 | 1.82 | 2.33 |
| 3.11 | 84 nM | 77 nM | 820 nM | 77 nM | 83 nM | 190 nM | – | – | CO[C@H]1/C=C\C=C(/C)C(=O)NC2=CC(=O)C(NC3CCN(C(=O)OC(C)(C)C)CC3)=C(C[C@@H](C)C[C@H](OC)[C@H](O)[C@@H](C)/C=C(\C)[C@@H]1OC(N)=O)C2=O | 13.4 | 2550 nM | 30.4 | 33.1 | 30.7 | 33.1 |
| 2.9 | 620 nM | 590 nM | 900 nM | 590 nM | 550 nM | 570 nM | – | – | CCOC(=O)C1CCC(CNC2=C3C[C@@H](C)C[C@H](OC)[C@H](O)[C@@H](C)/C=C(\C)[C@H](OC(N)=O)[C@@H](OC)/C=C\C=C(/C)C(=O)NC(=CC2=O)C3=O)CC1 (stereo partly specified) | 3.21 | 2150 nM | 3.47 | 3.64 | 3.91 | 3.64 |

The next lines start with the compound.

| Structure (SMILES) | logP at 1 h [4] | IC50 (U-87 MG) | IC50 (A549) | Kd [7] | IC50 (SK-BR-3) | IC50 (SK-OV-3) | IC50 (PC-3) | Kd [9] | Kd [10] | selectivity ratio [1] | IC50 [2] | selectivity ratio [3] | selectivity ratio [5] | Ratio IC50 [6] | selectivity ratio [8] |
| --- | --- | --- | --- | --- | --- | --- | --- | --- | --- | --- | --- | --- | --- | --- | --- |
| CCOC(=O)N1CCC(NC2=C3C[C@@H](C)C[C@H](OC)[C@H](O)[C@@H](C)/C=C(\C)[C@H](OC(N)=O)[C@@H](OC)/C=C\C=C(/C)C(=O)NC(=CC2=O)C3=O)CC1 | 2.39 | 1090 nM | 1130 nM | 890 nM | 1580 nM | – | 1150 nM | – | – | 4.69 | 5390 nM | 4.94 | 4.77 | 3.96 | 3.41 |
| COC1=C2C[C@@H](C)C[C@H](OC)[C@H](O)[C@@H](C)/C=C(\C)[C@H](OC(N)=O)[C@@H](OC)/C=C\C=C(/C)C(=O)NC(=CC1=O)C2=O [GELDANAMYCIN] | – | 810 nM | 990 nM | – | 870 nM | 940 nM | 730 nM | 10.5 µM | 1220 nM | 2.92 | 2130 nM | 2.62 | 2.15 | 2.27 | 2.45 |
| C=CCNC1=C2C[C@@H](C)C[C@H](OC)[C@H](O)[C@@H](C)/C=C(\C)[C@H](OC(N)=O)[C@@H](OC)/C=C\C=C(/C)C(=O)NC(=CC1=O)C2=O [TANESPIMYCIN] | – | > 10000 nM | > 10000 nM | – | 38 nM | 220 nM | 62 nM | 2.48 µM | – | – | 1200 nM | 51 | 52 | – | 49 |
